Tested on: L. major lysate proteins
Experiment: Multitargeted bead mixture chemoproteomics, single concentration competition, proteome-wide
Format: binding
Conditions: for fold change: vehicle control = 1

Nc1nc2[nH]cc(CCc3ccc(C(=O)N[C@@H](CCC(=O)O)C(=O)O)cc3)c2c(=O)[nH]1 [PTX, pemetrexed]
fold change (protein LMJF.15.0040 HY[…], CONSERVED (Possible lysine decarboxylase, putative)): 0.69
fold change vs vehicle control (protein LMJF.15.0690 HY[…], CONSERVED): 1.2
fold change (protein LMJF.15.1010 GLUTAMATE DEHYDROGENASE): 1
fold change (protein LMJF.15.1190 HY[…], CONSERVED (cyclic nucleotide-binding domain containing protein, putative)): 0.98
fold change vs vehicle control (protein LMJF.16.0520 HY[…], CONSERVED): 0.76
fold change vs vehicle control (protein LMJF.16.0540 ASPARTATE CARBAMOYLTRANSFERASE, PUTATIVE): 0.92
fold change relative to vehicle control (protein LMJF.16.0760, TRANSALDOLASE, PUTATIVE): 1.18
fold change vs vehicle control (protein LMJF.16.0940 DYNEIN LIGHT CHAIN, PUTATIVE): 1.1
fold change relative to vehicle control (protein LMJF.16.1180, COATOMER DELTA SUBUNIT-LIKE PROTEIN): 1.15
fold change relative to vehicle control (protein LMJF.16.1320, CYTOCHROME C, PUTATIVE): 1.56
fold change relative to vehicle control (protein LMJF.16.1420, HY[…], CONSERVED): 1.13
fold change relative to vehicle control (protein LMJF.17.0081, […] 1-ALPHA): 1.06
fold change relative to vehicle control (protein LMJF.18.0270, GLYCOGEN SYNTHASE KINASE, PUTATIVE): 0.92
fold change (protein LMJF.18.0580 P[…]-COA HYDRATASE, PUTATIVE): 0.93
fold change relative to vehicle control (protein LMJF.18.0680, CITRATE SYNTHASE, PUTATIVE): 1.08
fold change vs vehicle control (protein LMJF.18.1010 DYNEIN LIGHT CHAIN 2B, CYTOPLASMIC, PUTATIVE): 1.03
fold change vs vehicle control (protein LMJF.18.1210 PROLYL-TRNA SYNTHETASE, PUTATIVE,BI[…]-TRNA SYNTHETASE, PUTATIVE): 0.97
fold change vs vehicle control (protein LMJF.18.1370 HEAT SHOCK PROTEIN, PUTATIVE): 1.02
fold change (protein LMJF.19.0200 ADP,ATP CARRIER PROTEIN 1, MIT[…], PUTATIVE): 1.02
fold change vs vehicle control (protein LMJF.19.1120 […]-ATP-ASE SUBUNIT, PUTATIVE): 0.91
fold change vs vehicle control (protein LMJF.19.1160 HY[…], CONSERVED): 0.92
fold change vs vehicle control (protein LMJF.19.1560 INOSINE-5'-MONOPHOSPHATE DEHYDROGENASE): 0.92
fold change relative to vehicle control (protein LMJF.19.1620, POTASSIUM VOLTAGE-GATED CHANNEL, PUTATIVE): 1.13
fold change vs vehicle control (protein LMJF.20.1280 SMALL MYR[…] 4, PUTATIVE): 0.89
fold change (protein LMJF.21.0810 METHIONYL-TRNA SYNTHETASE, PUTATIVE): 0.98
fold change (protein LMJF.21.1450 ARGININE N-METHYLTRANSFERASE, TYPE II, PUTATIVE): 0.98
fold change vs vehicle control (protein LMJF.21.1830 […] 5 SUBUNIT, PUTATIVE,20S […] ALPHA 5, (PUTATIVE)): 0.96
fold change (protein LMJF.22.0230 AMINO ACID PERMEASE, PUTATIVE): 1.09
fold change vs vehicle control (protein LMJF.22.0570 […] SUBUNIT 1, PUTATIVE): 1.04
fold change vs vehicle control (protein LMJF.22.0730 HY[…], CONSERVED): 0.96
fold change (protein LMJF.22.0770 NADH-CYTOCHROME B5 REDUCTASE, PUTATIVE): 0.82
fold change relative to vehicle control (protein LMJF.23.0020, HY[…], CONSERVED): 1.35
fold change relative to vehicle control (protein LMJF.23.0040, PEROXIDOXIN): 0.99
fold change relative to vehicle control (protein LMJF.23.0080, HY[…], CONSERVED): 0.97
fold change (protein LMJF.23.0210 ATP-BINDING CASSETTE PROTEIN SUBFAMILY C, MEMBER 1, PUTATIVE): 0.87
fold change (protein LMJF.23.0370 CYTOCHROME C OXIDASE SUBUNIT 10, PUTATIVE): 0.9
fold change relative to vehicle control (protein LMJF.23.0540, ACETYL-COA SYNTHETASE, PUTATIVE): 1.05
fold change vs vehicle control (protein LMJF.23.0560 KINESIN, PUTATIVE): 1.12
fold change vs vehicle control (protein LMJF.23.1410 HY[…], CONSERVED): 0.97
fold change relative to vehicle control (protein LMJF.24.0070, HY[…], CONSERVED): 1.03
fold change (protein LMJF.24.0140 ANKYRIN/TPR REPEAT PROTEIN): 0.86
fold change (protein LMJF.24.0400 HY[…], CONSERVED (TPR repeat, putative)): 0.87
fold change relative to vehicle control (protein LMJF.24.1510, IGE-DEPENDENT HISTAMINE-RELEASING FACTOR, PUTATIVE): 1.15
fold change relative to vehicle control (protein LMJF.24.1630, SUCCINATE DEHYDROGENASE FLAVOPROTEIN, PUTATIVE): 0.98
fold change relative to vehicle control (protein LMJF.24.2060, TRANSKETOLASE): 0.96
fold change relative to vehicle control (protein LMJF.25.0010, BETA GALACTOFURANOSYL TRANSFERASE): 1.17
fold change relative to vehicle control (protein LMJF.25.0910, C[…]): 1.55
fold change vs vehicle control (protein LMJF.25.1130 CYTOCHROME C OXIDASE VII, PUTATIVE): 0.92
fold change relative to vehicle control (protein LMJF.25.1180, ATPASE BETA SUBUNIT, PUTATIVE): 1
fold change vs vehicle control (protein LMJF.25.1610 HY[…], CONSERVED): 0.99
fold change vs vehicle control (protein LMJF.25.1620 HY[…], CONSERVED): 1.01
fold change (protein LMJF.25.2340 SERINE/THREONINE-PROTEIN KINASE, PUTATIVE,PROTEIN KINASE, PUTATIVE): 0.74
fold change relative to vehicle control (protein LMJF.26.0630, HY[…], CONSERVED): 0.9
fold change vs vehicle control (protein LMJF.26.1240 HEAT SHOCK PROTEIN 70-RELATED PROTEIN): 0.88
fold change (protein LMJF.26.1710 CYTOCHROME C OXIDASE SUBUNIT V, PUTATIVE): 0.94
fold change vs vehicle control (protein LMJF.26.2480 CDP-DIACYLGLYCEROL--INOSITOL 3-PHOSPHATIDYLTRANSFERASE, PUTATIVE): 1.06
fold change vs vehicle control (protein LMJF.26.2560 HY[…], CONSERVED): 0.66
fold change vs vehicle control (protein LMJF.27.0190 […] 7 SUBUNIT, PUTATIVE): 0.91
fold change (protein LMJF.27.0650 HY[…], CONSERVED): 0.99
fold change (protein LMJF.27.0700 HY[…], CONSERVED): 0.86
fold change vs vehicle control (protein LMJF.27.0760 GTP-binding protein homologue): 1.01
fold change vs vehicle control (protein LMJF.27.1060 CYSTEINE DESULFURASE, PUTATIVE): 0.96
fold change vs vehicle control (protein LMJF.27.1110 MIT[…] BINDING PROTEIN 1,GBP21, MRP1): 1.06
fold change (protein LMJF.27.1250 HY[…], CONSERVED (Serine-threonine kinase receptor-associated protein, putative)): 0.88
fold change relative to vehicle control (protein LMJF.27.1390, 60S ACIDIC RIBOSOMAL SUBUNIT PROTEIN, PUTATIVE): 1.07
fold change (protein LMJF.27.1460 […]-ATP-ASE SUBUNIT 3, PUTATIVE): 0.89

Reference: PMC6199744, “Development of Chemical Proteomics for the Folateome and Analysis of the Kinetoplastid Folateome” (ACS Infectious Diseases, 2018)
